Test [1] has as its target Somatostatin receptor type 3 (Homo sapiens, UniProt P32745).
Test [2] has as its target Somatostatin receptor type 2 (Homo sapiens, UniProt P30874).
For test [3], the target named is Somatostatin receptor type 1 (Homo sapiens, UniProt P30872).
Test [4] concerns the target Somatostatin receptor type 4 (Homo sapiens, UniProt P31391).
Test [5] addresses Somatostatin receptor type 5 (Homo sapiens, UniProt P35346).

Values joined by “and” are separate entries in the source; they are usually repeats but may differ in a detail not shown here. Equal entries are not always repeated. Numbered stars: 1 amine (or outer) side, 2 acyl side, 3 side chain; on linkers, the order of the positions; unused ones are H or OH. Bridge positions count the residues as written; N and C are the ends. Square brackets hold non-standard residues; d marks the D form. Peptide text beside a SMILES is read from it. * marks the point of attachment. d1Nal = N[C@H](Cc1cccc2ccccc12)C(=O)O; Asu = N[C@@H](CCCCCC(=O)O)C(=O)O; X1 = O=C(C(N[*:1])S[*:3])[*:2]; Ahp = NCCCCCCC(=O)O; Bn = c1ccc(C*)cc1; Mpa = O=C(O)CCS

Sequence of Somatostatin receptor type 1 (P30872 whole entry): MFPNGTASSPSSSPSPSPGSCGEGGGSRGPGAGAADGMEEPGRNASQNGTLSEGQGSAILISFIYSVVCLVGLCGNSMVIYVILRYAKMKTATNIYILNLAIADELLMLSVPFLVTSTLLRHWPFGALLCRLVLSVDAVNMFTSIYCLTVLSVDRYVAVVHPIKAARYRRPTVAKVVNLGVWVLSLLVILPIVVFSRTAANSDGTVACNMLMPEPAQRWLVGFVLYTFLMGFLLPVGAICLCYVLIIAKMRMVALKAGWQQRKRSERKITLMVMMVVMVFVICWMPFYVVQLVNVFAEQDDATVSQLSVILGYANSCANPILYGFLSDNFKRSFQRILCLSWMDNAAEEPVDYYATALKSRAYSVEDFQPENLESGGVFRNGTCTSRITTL
Sequence of Somatostatin receptor type 5 (P35346 whole entry): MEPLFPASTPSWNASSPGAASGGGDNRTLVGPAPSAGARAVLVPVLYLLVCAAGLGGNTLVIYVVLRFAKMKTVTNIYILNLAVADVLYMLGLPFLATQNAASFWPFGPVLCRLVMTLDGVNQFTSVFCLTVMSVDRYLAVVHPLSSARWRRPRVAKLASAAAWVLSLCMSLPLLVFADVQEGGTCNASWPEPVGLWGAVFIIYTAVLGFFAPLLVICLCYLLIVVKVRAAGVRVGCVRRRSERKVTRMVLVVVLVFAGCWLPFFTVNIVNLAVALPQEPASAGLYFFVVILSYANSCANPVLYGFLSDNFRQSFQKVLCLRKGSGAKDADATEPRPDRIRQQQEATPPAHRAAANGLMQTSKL
Sequence of Somatostatin receptor type 2 (P30874 whole entry): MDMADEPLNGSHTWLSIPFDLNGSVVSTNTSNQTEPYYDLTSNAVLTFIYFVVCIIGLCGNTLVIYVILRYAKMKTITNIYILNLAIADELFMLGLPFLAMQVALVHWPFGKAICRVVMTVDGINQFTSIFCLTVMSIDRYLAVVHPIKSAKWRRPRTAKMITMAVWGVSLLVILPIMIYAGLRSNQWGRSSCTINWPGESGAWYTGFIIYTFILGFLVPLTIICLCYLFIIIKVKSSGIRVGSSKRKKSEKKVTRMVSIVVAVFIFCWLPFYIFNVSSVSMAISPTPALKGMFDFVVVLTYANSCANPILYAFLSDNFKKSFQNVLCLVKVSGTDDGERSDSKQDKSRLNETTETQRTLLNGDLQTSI
Sequence of Somatostatin receptor type 4 (P31391 whole entry): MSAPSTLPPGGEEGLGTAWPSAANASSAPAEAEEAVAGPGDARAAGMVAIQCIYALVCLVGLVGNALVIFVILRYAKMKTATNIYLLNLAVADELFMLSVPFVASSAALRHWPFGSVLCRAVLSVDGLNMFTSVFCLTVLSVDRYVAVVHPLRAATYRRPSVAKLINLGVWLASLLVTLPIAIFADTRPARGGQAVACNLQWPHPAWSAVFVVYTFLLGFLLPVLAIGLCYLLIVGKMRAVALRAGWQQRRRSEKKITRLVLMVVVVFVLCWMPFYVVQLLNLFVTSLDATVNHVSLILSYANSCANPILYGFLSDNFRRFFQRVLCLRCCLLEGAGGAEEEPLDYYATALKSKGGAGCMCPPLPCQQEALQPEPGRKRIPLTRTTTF
Sequence of Somatostatin receptor type 3 (P32745 whole entry): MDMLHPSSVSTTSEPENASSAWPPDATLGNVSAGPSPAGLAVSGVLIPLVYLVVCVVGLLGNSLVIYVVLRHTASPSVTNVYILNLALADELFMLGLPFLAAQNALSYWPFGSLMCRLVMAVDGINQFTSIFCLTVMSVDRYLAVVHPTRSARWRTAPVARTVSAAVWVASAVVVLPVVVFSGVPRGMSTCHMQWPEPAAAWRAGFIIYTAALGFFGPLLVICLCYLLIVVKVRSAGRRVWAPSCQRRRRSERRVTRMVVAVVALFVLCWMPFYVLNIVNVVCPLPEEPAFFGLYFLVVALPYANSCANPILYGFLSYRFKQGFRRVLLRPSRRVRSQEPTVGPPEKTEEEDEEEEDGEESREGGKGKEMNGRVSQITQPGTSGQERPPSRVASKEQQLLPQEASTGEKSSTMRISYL

Turning to `C[C@@H](OCc1ccccc1)[C@@H]1NC(=O)[C@H](CCCCN)NC(=O)[C@@H](Cc2c[nH]c3ccccc23)NC(=O)[C@H](Cc2ccccc2)NC(=O)CCCCCCNC1=O` [c[Aha-Phe-D-Trp-Lys-Thr(Bzl)]] (cyclo([Ahp]F[dW]KT(Bn))), the Ki in test [1] was 589 nM and 83.2 nM; in test [2] it was 1820 nM; in test [3], 95.5 nM and 158 nM; in test [4], 331 nM and 851 nM; in test [5] it was 955 nM.
As to `C[C@@H](O)[C@@H]1NC(=O)[C@H](CCCCN)NC(=O)[C@@H](Cc2c[nH]c3ccccc23)NC(=O)[C@H](Cc2c[nH]c3ccccc23)NC(=O)[C@H](Cc2ccccc2)NC(=O)CCCCCCNC(=O)[C@H](Cc2ccccc2)NC1=O` [L-362855] (cyclo([Ahp]FW[dW]KTF)), the Ki in test [1] is 24 nM and 5.62 nM; in test [3], 562 nM and 501 nM; in test [4], 49 nM and 174 nM.
Regarding `C[C@@H](O)[C@H](NC(=O)[C@H](Cc1ccccc1)NC(=O)[C@@H](NC(=O)[C@H](CCCCN)NC(=O)[C@@H](Cc1c[nH]c2ccccc12)NC(=O)[C@H](Cc1ccccc1)NC(=O)[C@H](Cc1ccccc1)NC(=O)[C@H](N)Cc1ccccc1)[C@@H](C)O)C(N)=O` [CAS_133073-82-2] (H-[dF]FF[dW]KTFT-NH2), the Ki in test [2] was 3.16 nM; in test [3], 4.27 nM and 2.4 nM; in test [4], 2.34 nM and 6.31 nM; in test [5], 35.5 nM.
As for `CC(C)[C@@H]1NC(=O)[C@H](CCCCN)NC(=O)[C@@H](Cc2c[nH]c3ccccc23)NC(=O)[C@H](Cc2ccc(O)cc2)NC(=O)CCSSC(C(=O)N[C@@H](Cc2ccccc2)C(N)=O)NC1=O` (stereo not given in full) [CAS_117580-24-2] ([Mpa]Y[dW]KV[X1]F-NH2; disulfide 1-6), the inhibition constant Ki in test [1] is 67.6 nM and 14.1 nM; in test [2], 21.9 nM; in test [3], 8710 nM and > 10000 nM; in test [4], 1050 nM and 2750 nM; in test [5] it was 2750 nM.
Take `C[C@@H](O)[C@@H]1NC(=O)[C@H](CCCCN)NC(=O)[C@H](Cc2c[nH]c3ccccc23)NC(=O)[C@H](Cc2ccccc2)NC(=O)[C@H](Cc2ccccc2)NC(=O)[C@H](CC(N)=O)NC(=O)[C@H](CCCCN)NC(=O)[C@@H](NC(=O)[C@@H]2CCCN2)CSSC[C@@H](C(=O)N[C@@H](CCCCN)C(=O)O)NC(=O)[C@H](CO)NC(=O)[C@H](CO)NC(=O)[C@H](Cc2ccccc2)NC1=O` [Cortistatin(1-14)] (H-PCKNFFWKTFSSCK-OH; disulfide 2-13): the Ki in test [1] is 0.87 nM and 0.74 nM; in test [2], 2.88 nM; in test [4], 1.74 nM and 1.78 nM; in test [5], 3.98 nM.
`CC(C)[C@@H]1NC(=O)[C@H](CCCCN)NC(=O)[C@@H](Cc2c[nH]c3ccccc23)NC(=O)[C@H](Cc2ccc(O)cc2)NC(=O)[C@@H](NC(=O)[C@H](N)Cc2ccccc2)CSSC[C@@H](C(=O)N[C@@H](Cc2c[nH]c3ccccc23)C(N)=O)NC1=O` [CAS_71306] (H-[dF]CY[dW]KVCW-NH2; disulfide 2-7): the inhibition constant Ki in test [1] is 42.7 nM and 12.3 nM; in test [2], 0.45 nM and 0.25 nM; in test [3] it was 83.2 nM and 110 nM; in test [4], 56.2 nM and 275 nM.
On to `CC(C)[C@H](NC(=O)[C@H](CCCCN)NC(=O)[C@@H](Cc1c[nH]c2ccccc12)NC(=O)[C@H](Cc1ccc(O)cc1)NC(=O)[C@H](Cc1ccccc1)NC(=O)[C@H](N)Cc1ccccc1)C(=O)N[C@@H](Cc1ccccc1)C(=O)N[C@H](Cc1cccc2ccccc12)C(N)=O` [BIM 23056] (H-[dF]FY[dW]KVF[d1Nal]-NH2), for which the Ki was 126 nM and 83.2 nM in test [1]; 589 nM in test [2]; 245 nM and 347 nM in test [3]; 67.6 nM and 339 nM in test [4]; 209 nM in test [5].
For `C[C@@H](O)[C@@H]1NC(=O)[C@H](Cc2ccc(O)cc2)NC(=O)[C@H]([C@@H](C)O)NC(=O)[C@H](CCCCN)NC(=O)[C@H](Cc2c[nH]c3ccccc23)NC(=O)[C@H](Cc2ccccc2)NC(=O)[C@H](Cc2ccccc2)NC(=O)[C@H](CC(N)=O)NC(=O)[C@H](CCCCN)NC(=O)CCCCC[C@@H](C(=O)O)NC(=O)[C@H](CO)NC1=O` [CGP-23996] (KNFFWKTYTS[Asu]-OH; lactam N-11), the Ki in test [1] is 1.51 nM and 0.52 nM; in test [2], 1.15 nM; in test [3] it was 4.68 nM and 4.9 nM; in test [4], 1.7 nM and 2.14 nM; in test [5], 214 nM.
On to `CC(C)[C@@H]1NC(=O)[C@H](CCCCN)NC(=O)[C@@H](Cc2c[nH]c3ccccc23)NC(=O)[C@H](Cc2ccc(O)cc2)NC(=O)[C@@H](NC(=O)[C@H](N)Cc2ccc3ccccc3c2)CSSC[C@@H](C(=O)N[C@H](C(N)=O)[C@@H](C)O)NC1=O` [3-(2-Naphtyl)-D-Ala-L-Cys(1)-L-Tyr-D-Trp-L-Lys-L-Val-L-Cys(1)-L-Thr-NH2], for which the Ki is 13.8 nM and 9.55 nM in test [1]; 0.54 nM and 0.55 nM in test [2]; 219 nM in test [3].
As to `CSCC[C@H](NC(=O)[C@H](CCCN=C(N)N)NC(=O)[C@@H](N)CC(=O)O)C(=O)N1CCC[C@H]1C(=O)N[C@H]1CSSC[C@@H](C(=O)N[C@@H](CCCCN)C(=O)O)NC(=O)[C@H](CO)NC(=O)[C@H](CO)NC(=O)[C@H](Cc2ccccc2)NC(=O)[C@H]([C@@H](C)O)NC(=O)[C@H](CCCCN)NC(=O)[C@H](Cc2c[nH]c3ccccc23)NC(=O)[C@H](Cc2ccccc2)NC(=O)[C@H](Cc2ccccc2)NC(=O)[C@H](CC(N)=O)NC(=O)[C@H](CCCN=C(N)N)NC1=O` [Cortistatin], the Ki in test [1] is 0.37 nM and 0.3 nM; in test [2] it was 0.85 nM and 0.51 nM; in test [3] it was 0.25 nM; in test [4], 0.58 nM and 0.28 nM; in test [5] it was 0.29 nM and 0.43 nM.
As for `CC(C)[C@@H]1NC(=O)[C@H](CCCCN)NC(=O)[C@@H](Cc2c[nH]c3ccccc23)NC(=O)[C@H](Cc2ccc(O)cc2)NC(=O)[C@H](C)N(C)C(=O)[C@H](Cc2ccccc2)NC1=O` [seglitide], the Ki in test [3] was greater than 10000 nM; in test [5] it was 0.72 nM.
Turning to `C[C@@H](O)[C@@H]1NC(=O)[C@H](CCCCN)NC(=O)[C@@H](Cc2c[nH]c3ccccc23)NC(=O)[C@H](Cc2ccccc2)NC(=O)[C@@H]2CCCN2C(=O)[C@H](Cc2ccccc2)NC1=O` (cyclo(PF[dW]KTF)), the Ki is 457 nM and 148 nM in test [1]; 3.39 nM in test [2]; 4790 nM and 4170 nM in test [3]; 2450 nM and 8710 nM in test [4]; 67.6 nM in test [5].
